Experimental data taken from PubChem BioAssay (NCI).
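These data come from cells grown in 96-well plates and exposed to compound for 48 hours at five concentrations. Definition used: TGI = concentration required for complete inhibition of growth.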

Columns and labels:
Assay in all cases: growth of human tumour cells (NCI), 48 h
[1] = system: SNB-75 CNS
[2] = system: KM12 colon
[3] = system: HCC-2998 colon
[4] = system: MDA-N
[5] = system: UACC-62 melanoma
[6] = system: SK-MEL-2 melanoma
[7] = system: T-47D breast
[8] = system: A549 NSCLC
[9] = system: CAKI-1 renal
[10] = system: MDA-MB-435
[11] = system: LOX IMVI melanoma
[12] = system: BT-549 breast
[13] = system: NCI/ADR-RES ovarian
[14] = system: OVCAR-5 ovarian
[15] = system: HOP-62 NSCLC
[16] = system: NCI-H460 lung
[17] = system: ACHN renal
[18] = system: IGROV1 ovarian
[19] = system: OVCAR-3 ovarian
[20] = system: UACC-257 melanoma
[21] = system: CCRF-CEM leukemia
[22] = system: SN12C renal
[23] = system: SF-268 CNS
[24] = system: U251 CNS
[25] = system: SW-620 colon
[26] = system: SF-539 CNS
[27] = system: MALME-3M melanoma
[28] = system: HT29 colon
[29] = system: SK-MEL-5 melanoma
[30] = system: NCI-H23 lung
[31] = system: SR leukemia
[32] = system: OVCAR-4 ovarian
[33] = system: MOLT-4 leukemia
[34] = system: MDA-MB-231 breast
[35] = system: COLO 205 colon
[36] = system: HOP-92 NSCLC
[37] = system: PC-3 prostate
[38] = system: SK-MEL-28 melanoma
[39] = system: EKVX NSCLC
[40] = system: RXF 393 renal
[41] = system: HCT-116 colon
[42] = system: SNB-19 CNS
[43] = system: RPMI-8226 leukemia
[44] = system: NCI-H226 lung
[45] = system: MCF7 breast
[46] = system: OVCAR-8 ovarian
[47] = system: UO-31 renal
[48] = system: K-562 leukemia
[49] = system: TK-10 renal
[50] = system: HS 578T breast
[51] = system: SF-295 CNS
[52] = system: M14 melanoma
[53] = system: DU-145 prostate
[54] = system: 786-0 renal
[55] = system: SK-OV-3 ovarian
[56] = system: A498 renal
[57] = system: HCT-15 colon
[58] = system: HL-60(TB) leukemia
[59] = system: NCI-H522 lung

Cc1cc(C)c(S(=O)(=O)N(CCCCCN)OCCCN)c(C)c1
TGI [1]: 30.9 µM
TGI [2]: 34.8 µM
TGI [3]: 20 µM
TGI [4]: 31.4 µM
TGI [5]: 33.4 µM
TGI [6]: 35.1 µM
TGI [7]: 37.7 µM
TGI [8]: 36 µM
TGI [9]: 31.2 µM
TGI [10]: 34.9 µM
TGI [11]: 36.8 µM
TGI [12]: 32.4 µM
TGI [13]: 34.3 µM
TGI [14]: 33.7 µM
TGI [15]: 32.3 µM
TGI [16]: 31.2 µM
TGI [17]: 33.6 µM
TGI [18]: 30 µM
TGI [19]: 36.2 µM
TGI [20]: 32 µM
TGI [21]: 45.6 µM
TGI [22]: 33.3 µM
TGI [23]: 37.6 µM
TGI [24]: 35.4 µM
TGI [25]: 36.3 µM
TGI [26]: 27 µM
TGI [27]: 40.2 µM
TGI [28]: 27.9 µM
TGI [29]: 35.5 µM
TGI [30]: 33.4 µM
TGI [31]: 43.9 µM
TGI [32]: 37.8 µM
TGI [33]: 33 µM
TGI [34]: 49 µM
TGI [35]: 37.9 µM
TGI [36]: 31 µM
TGI [37]: 28.8 µM
TGI [38]: 32.2 µM
TGI [39]: 30.6 µM
TGI [40]: 24.8 µM
TGI [41]: 32.7 µM
TGI [42]: 37.6 µM
TGI [43]: 30.6 µM
TGI [44]: 29.9 µM
TGI [45]: 33.5 µM
TGI [46]: 34.1 µM
TGI [47]: 27.1 µM
TGI [48]: 60.8 µM
TGI [49]: 30.8 µM
TGI [50]: 40 µM
TGI [51]: 30.4 µM
TGI [52]: 37 µM
TGI [53]: 31.2 µM

CN1CCC(O)(OC(=O)C(c2ccccc2)C2(O)CCCC2)CC1 (stereo not given)
TGI [54]: > 100 µM
TGI [55]: > 100 µM
TGI [1]: > 100 µM
TGI [2]: > 100 µM
TGI [3]: > 100 µM
TGI [4]: > 100 µM
TGI [5]: > 100 µM
TGI [6]: > 100 µM
TGI [7]: > 100 µM
TGI [8]: > 100 µM
TGI [9]: > 100 µM
TGI [10]: > 100 µM
TGI [11]: > 100 µM
TGI [56]: > 100 µM
TGI [13]: > 100 µM
TGI [14]: > 100 µM
TGI [15]: > 100 µM
TGI [16]: > 100 µM
TGI [17]: > 100 µM
TGI [18]: > 100 µM
TGI [19]: > 100 µM
TGI [20]: > 100 µM
TGI [57]: > 100 µM
TGI [21]: > 100 µM
TGI [22]: > 100 µM
TGI [23]: > 100 µM
TGI [58]: > 100 µM
TGI [24]: > 100 µM
TGI [25]: > 100 µM
TGI [26]: > 100 µM
TGI [27]: > 100 µM
TGI [28]: > 100 µM
TGI [29]: > 100 µM
TGI [30]: > 100 µM
TGI [31]: > 100 µM
TGI [32]: > 100 µM
TGI [33]: > 100 µM
TGI [34]: > 100 µM
TGI [35]: > 100 µM
TGI [36]: > 100 µM
TGI [37]: > 100 µM
TGI [38]: > 100 µM
TGI [39]: > 100 µM
TGI [40]: > 100 µM
TGI [41]: > 100 µM
TGI [42]: > 100 µM
TGI [43]: > 100 µM
TGI [44]: > 100 µM
TGI [45]: > 100 µM
TGI [59]: > 100 µM
TGI [46]: > 100 µM
TGI [48]: > 100 µM
TGI [49]: > 100 µM
TGI [50]: > 100 µM
TGI [51]: > 100 µM
TGI [52]: > 100 µM
TGI [53]: > 100 µM

CCOC(=O)c1cnc2n(c1=O)[C@H]1CCCC[C@@H]1N2
TGI [54]: > 100 µM
TGI [55]: > 100 µM
TGI [1]: > 100 µM
TGI [2]: > 100 µM
TGI [3]: > 100 µM
TGI [4]: > 100 µM
TGI [5]: > 100 µM
TGI [6]: > 100 µM
TGI [7]: > 100 µM
TGI [8]: > 100 µM
TGI [9]: > 100 µM
TGI [10]: > 100 µM
TGI [11]: > 100 µM
TGI [56]: > 100 µM
TGI [12]: > 100 µM
TGI [13]: > 100 µM
TGI [14]: > 100 µM
TGI [16]: > 100 µM
TGI [17]: > 100 µM
TGI [18]: > 100 µM
TGI [19]: > 100 µM
TGI [20]: > 100 µM
TGI [57]: > 100 µM
TGI [21]: > 100 µM
TGI [22]: > 100 µM
TGI [23]: > 100 µM
TGI [58]: > 100 µM
TGI [24]: > 100 µM
TGI [25]: > 100 µM
TGI [26]: > 100 µM
TGI [27]: > 100 µM
TGI [28]: > 100 µM
TGI [29]: > 100 µM
TGI [30]: > 100 µM
TGI [32]: > 100 µM
TGI [33]: > 100 µM
TGI [34]: > 100 µM
TGI [35]: > 100 µM
TGI [36]: > 100 µM
TGI [37]: > 100 µM
TGI [38]: > 100 µM
TGI [39]: > 100 µM
TGI [41]: > 100 µM
TGI [42]: > 100 µM
TGI [43]: > 100 µM
TGI [44]: > 100 µM
TGI [45]: > 100 µM
TGI [59]: > 100 µM
TGI [46]: > 100 µM
TGI [47]: > 100 µM
TGI [48]: > 100 µM
TGI [50]: > 100 µM
TGI [51]: > 100 µM
TGI [52]: > 100 µM
TGI [53]: > 100 µM
